Assay results: US20260034192A1 (University of Saskatchewan, priority 2022, published 2026)
Several values for one entry are separate records, joined by “and”; a condition that tells them apart may be missing. Equal entries are not always repeated. Marks after values point to notes of the source that are not given here. Square brackets hold non-standard residues; d marks the D form. Peptide text beside a SMILES is read from it. dPhe(4-Cl) = N[C@H](Cc1ccc(Cl)cc1)C(=O)O; d2Nal = N[C@H](Cc1ccc2ccccc2c1)C(=O)O; dCit = NC(=O)NCCC[C@@H](N)C(=O)O; d3Pal = N[C@H](Cc1cccnc1)C(=O)O

Tests used:
[1] = system: Hereford crossbred heifers; test: Cetrorelix pre-treatment before kisspeptin-10 in low-progesterone heifer model (Example 1); format: in vivo, cattle
Method: Methods: The human Kisspeptin-10 (hKP-10) peptide (YNWNSFGLRF-NH2; SEQ ID NO: 1) was custom synthetized at >95% of purity (MW: 1318.44 g/mol) by GenScript USA Inc, Piscataway, NJ, USA. The sequence is based on the predicted C-terminal region (112-121-NH2) of human metastin (Gen Bank accession #AY117143) and has been previously used in cattle. The peptide was previously tested for solubility and was dissolved in ultrapure water at 10 mg/mL.
The heifers were maintained in outdoor pens at the University of Saskatchewan Goodale Research Farm (52° north and 106° west). Heifers were fed barley silage and had hay and water ad libitum. A mineral salt block was available to heifers throughout the study period. All procedures were performed in accordance with Canadian Council on Animal Care and were approved by the University of Saskatchewan Protocol Review Committee.
Immediately after ultrasound examination, heifers were given PGF2a twice at an interval of 12-hours. The low-progesterone bovine model described previously (Leonardi et al. 2019) was used to test the hypothesis. Briefly, the ovaries were examined daily by ultrasonography to detect ovulation. Three days after ovulation, follicles ≥5 mm in diameter in both ovaries were ablated by transvaginal ultrasound-guided follicle aspiration, inducing the emergence of new follicular wave 1.5 days after the procedure (Bergfelt et al. 1994). After follicular ablation, a progesterone device was placed in the vagina (CIDR; Zoetis). The day of wave emergence (Day 0) was defined as the day when the follicle of wave was first recorded (4 to 5 mm in diameter) with concurrent increase in diameter. Heifers were given PGF2α im on Days 3.5 and 4 (i.e., 8 and 8.5 days after ovulation) to cause luteolysis, however, the CIDR devices were left in place until Day 12 to maintain a low-progesterone milieu sufficient to prevent spontaneous ovulation. On Day 6, an indwelling jugular catheter was placed as described (Bergfelt et al. 1997) and heifers were assigned randomly to three groups (n=5 per group): 1) 3 iv doses of 15 mg human kisspeptin-10 at 1 h intervals (Kp10 group), 2) pretreatment with single im dose of Cetrorelix acetate (20 μg/Kg of body weight, GnRH antagonist—Sigma #C5249 diluted in 5% D-Manitol w/v, Sigma #M4125) followed 3 h later with 3 iv doses of 15 mg human kisspeptin-10 at 1 h intervals (Cetrorelix group), or 3) 3 iv doses of normal saline at 1 h intervals (Control group). Following treatment (on Day 6), ovarian ultrasound examinations were performed daily until the end of the experiment to detect ovulation of the extant dominant follicle (i.e., dominant follicle present at the time of treatment) or of the dominant follicle originating from a subsequent wave. The progesterone device was withdrawn on Day 12 (i.e., thirteen days after insertion) and ultrasound examinations were continued until ovulation was detected.
Blood samples and hormone assays: Serial blood samples on the day of treatment were collected at 15 minute intervals from −30 to 150 min (0 min=time of first hKP-10 or saline injection) using the indwelling jugular catheter. All blood samples were collected in heparinized tubes (Vacutainer, BD, Franklin Lakes NJ, USA). Immediately after sampling, tubes were centrifuged at 1,500×g for 15 min, and plasma was separated and stored at −20° C.
The plasma samples from both experiments were analyzed for LH and progesterone concentration at the University of Wisconsin (Madison, WI, USA) in Dr O. J. Ginther's Research Laboratory. Plasma LH concentrations were measured with a validated radioimmunoassay for cattle (Bolt et al. 1990) with modifications as reported Ginther et al. 1999). Briefly, LH concentrations were measured in duplicate using USDA-bLH-B-6 for ^125I-iodination and for preparing reference standards, and USDA-309-684P as the primary antibody (National Hormone and Pituitary Program, Torrance, CA, USA). […]

[2] = system: Brahman x Angus cross beef post-partum cows; test: Field trial of fixed-time AI after cetrorelix versus estradiol protocol (Example 8); format: in vivo, cattle
Method: This field trial was conducted by a faculty member of the Federal University of Santa Maria at a client beef farm in Brazil in December 2022. A total of 216 Brahman x Angus cross beef post-partum cows were used for this experiment. Cows were divided into two treatment groups ([…]) and were either given cetrorelix 3 mg i/m or estradiol benzoate on a random day of the cycle (defined as Day 0). An intravaginal progesterone device (CIDR) was placed in all cows on Day 0. The CIDR devices were removed on Day 8 and animals were given prostaglandin F2a analog and equine choriogonadotropin (eCG). Fixed-time artificial insemination was done 54 hrs after CIDR removal and animals were given GnRH at this time. Pregnancy diagnosis was performed on Day 30 after artificial insemination. Transrectal ultrasound examinations were performed on Day 0, Day 8, Day 10 and Day 40.

[3] = Day 6 of wave, low progesterone, Kp10 3 x 15 mg iv, Cetrorelix 20 μg/Kg im 3 h before Kp10
[4] = Kp10 3 x 15 mg iv, Cetrorelix 20 μg/Kg im 3 h before Kp10
[5] = 30 days after fixed-time artificial insemination

In the case of `CC(=O)N[C@H](Cc1ccc2ccccc2c1)C(=O)N[C@H](Cc1ccc(Cl)cc1)C(=O)N[C@H](Cc1cccnc1)C(=O)N[C@@H](CO)C(=O)N[C@@H](Cc1ccc(O)cc1)C(=O)N[C@H](CCCNC(N)=O)C(=O)N[C@@H](CC(C)C)C(=O)N[C@@H](CCCNC(=N)N)C(=O)N1CCC[C@H]1C(=O)N[C@H](C)C(N)=O` [Cetrorelix, N-acetyl-3-(2-naphthyl)-D-alanyl-4-chloro-D-phenylalanyl-3-(3-pyridyl)-D-alanyl-L-seryl-L-tyrosyl-D-citrullyl-L-leucyl-L-arginyl-L-prolyl-D-alaninamide] (Ac-[d2Nal][dPhe(4-Cl)][d3Pal]SY[dCit]LRP[dA]-NH2), the “Dominant follicle diameter 24 h after treatment” value [1, 3] is reported as 13.38 ± 0.55 mm, the “Dominant follicle diameter 48 h after treatment” value [1, 3] is reported as 12.91 ± 0.55 mm and the “Dominant follicle diameter at time of treatment” value [1, 3] is reported as 13.01 ± 0.68 mm. The “Emergence of a new follicular wave after treatment” value ([1]; Day 6 of wave, low progesterone, Kp10 3 x 15 mg iv, Cetrorelix single im 20 μg/Kg 3 h before Kp10) was 3.40 ± 0.75 days and 3.4 days, the “Emergence of a new follicular wave after treatment” value ([1]; Day 6 of wave, low progesterone, Kp10 3 x 15 mg iv, Cetrorelix single im 20 μg/Kg 3 h before Kp10, listed as Cetrorelix acetate) was “about 3.40±0.75 days” and the “Day of ovulation of new dominant follicles after CIDR removal (Day 12)” value ([1]; Day of follicular wave) was 15. The “Heifers in which a new wave emergence occurred” value [1, 4] was 5 of 5, the “Number of ovulations after CIDR removal on Day 12: Extant dominant follicle” value [1, 4] was 0/5 and the “Number of ovulations after CIDR removal on Day 12: New dominant follicle” value [1, 4] was 5/5. The “Plasma LH concentration / kisspeptin-induced LH surge” value [1, 4] was “suppressed the kisspeptin-induced LH surge”, the “Time by which the dominant follicle entered the regression phase” value ([1]; after kisspeptin and GnRH antagonist treatment) was no more than 72 h and the “Conception rate: Percent” value [2, 5] was 42.6%. For the same compound, the “Conception rate: Pregnant/AI” value [2, 5] was 46/108*, the “Conception rate: Percent” value ([2]; 30 days after fixed-time artificial insemination, listed as cetrorelix) was 42.6% and the “Size of the dominant follicle on Day 8 (at PGF)” value ([2]; cetrorelix 3 mg i/m or estradiol benzoate on Day 0, CIDR removal Day 8, in mm) was 11.04 ± 0.48. The “Size of the dominant follicle on Day 10 (at AI)” value ([2]; cetrorelix 3 mg i/m or estradiol benzoate on Day 0, in mm) was 12.72 ± 0.65.
